In patent US7138418B2, “Pentafluorobenzenesulfonamides and analogs” (Amgen, Inc., priority 1996, dated 2006):

What was measured:
[1] = test system: LDL receptor expression in Hep G2 cells; assay: LDL receptor expression in Hep G2 cells by western-blot analysis; format: cell-based; settings: Homo sapiens, HepG2, minimum concentration at which a maximal induction of LDL receptor was observed
Experimental: Compounds may be evaluated in vitro for their ability to increase LDL receptor expression using western-blot analysis, for example, as described in Tam et al. (1991) J. Biol. Chem. 266, 16764. Established animal models to evaluate hypocholesterolemic effects of compounds are known in the art. […] 81, 300; Evans et al. (1994) J. Lipid Res. 35, 1634; Lin et al (1995) J. Med. Chem. 38, 277.
Compounds were evaluated for their ability to increase LDL receptor expression in Hep G2 cells using western-blot analysis as described in Tam et al., J. Biol. Chem., 266, 16764 (1991).

Question: For COc1ccc(N(CCCCCO)S(=O)(=O)c2c(F)c(F)c(F)c(F)c2F)cc1O [Example 37, 2-Hydroxy-1-methoxy-4-(N-(5-hydroxypentyl)-pentafluorophenylsulfonamido)benzene], which melting point is on record?
Answer: 118 °C

Question: For COc1cccc(NS(=O)(=O)c2c(F)c(F)c(F)c(F)c2F)c1 [Example 24, 3-Methoxy-1-pentafluorophenylsulfonamidobenzene], which EC (max) [1] is on record?
Answer: 15 µM

Question: For CCN(CC)c1ccc(NS(=O)(=O)c2c(F)c(F)c(F)c(F)c2F)cc1 [Example 12, 4-(N,N-Diethylamino)-1-pentafluorophenylsulfonamidobenzene], which EC (max) [1] is on record?
Answer: 5 µM

Question: Which melting point does the source give for COc1ccc(N(CCCCCO)S(=O)(=O)c2c(F)c(F)c(F)c(F)c2F)cc1 [Example 57, 4-Methoxy-1-(N-(5-hydroxypentyl)pentafluorophenylsulfonamido)benzene] here?
Answer: 96 to 97 °C

Question: For O=S(=O)(Nc1ccc2c(c1)OCCO2)c1c(F)c(F)c(F)c(F)c1F [Example 3, 1,2-Ethylenedioxy-4-pentafluorophenylsulfonamidobenzene], which EC (max) [1] is on record?
Answer: 5 µM

Question: With O=S(=O)(Nc1ccc2c(c1)OCO2)c1c(F)c(F)c(F)c(F)c1F [Example 4, 1,2-Methylenedioxy-4-pentafluorophenylsulfonamidobenzene] as the compound, how does the EC (max) [1] read?
Answer: ≤ 5 µM

Question: For COc1ccc(NS(=O)(=O)c2c(F)c(F)c(F)c(F)c2F)cc1Cl [Example 32, 2-Chloro-1-methoxy-4-pentafluorophenylsulfonamidobenzene], which EC (max) [1] is on record?
Answer: 1.5 µM

Question: With O=S(=O)(Nc1ccc(Cl)nc1)c1c(F)c(F)c(F)c(F)c1F [Example 36, 2-Chloro-5-pentafluorophenylsulfonamidopyridine] as the compound, how does the melting point read?
Answer: 144 to 145 °C

Question: Which EC (max) [1] does the source give for O=S(=O)(Nc1ccc2[nH]ncc2c1)c1c(F)c(F)c(F)c(F)c1F [Example 15, 5-Pentafluorophenylsulfonamidoindazole] here?
Answer: 15 µM

Question: With COc1ccc(N(CC(O)CO)S(=O)(=O)c2c(F)c(F)c(F)c(F)c2F)cc1 (centres unmarked) [Example 53, 1-(N-(2,3-Dihydroxypropyl)pentafluorophenylsulfonamido)-4-methoxybenzene] as the compound, how does the melting point read?
Answer: 130 to 131 °C

Question: Which melting point does the source give for COc1ccc(NS(=O)(=O)c2c(F)c(F)c(F)c(F)c2F)cc1[N+](=O)[O-] [Example 58, 4-Methoxy-3-nitro-1-pentafluorophenylsulfonamidobenzene] here?
Answer: 95 to 97 °C

Question: With CN(C)c1ccc(N(C)S(=O)(=O)c2c(F)c(F)c(F)c(F)c2F)cc1 [Example 17, 4-(N,N-Dimethylamino)-1-(N-methylpentafluorophenylsulfonamido)benzene] as the compound, how does the EC (max) [1] read?
Answer: 5 µM

Question: With CN(C)c1ccc(NS(=O)(=O)c2c(F)c(F)c(F)c(F)c2F)cc1 [Example 1, 4-(N,N-Dimethylamino)-1-pentafluorophenylsulfonamidobenzene] as the compound, how does the EC (max) [1] read?
Answer: 0.5 µM

Question: Which melting point does the source give for COc1ccc(NS(=O)(=O)c2c(F)c(F)c(F)c(F)c2F)cc1 [Example 8, 4-Methoxy-1-pentafluorophenylsulfonamidobenzene] here?
Answer: 102 to 103 °C

Question: What about the EC (max) [1] of the same compound?
Answer: 0.5 µM

Question: Which EC (max) [1] does the source give for CN(C)c1cccc(NS(=O)(=O)c2c(F)c(F)c(F)c(F)c2F)c1 [Example 2, 3-(N,N-Dimethylamino)-1-pentafluorophenylsulfonamidobenzene] here?
Answer: 5 µM

Question: With C=CCCN(c1ccc(OC)cc1)S(=O)(=O)c1c(F)c(F)c(F)c(F)c1F [Example 51, 1-(N-(3-Butenyl)pentafluorophenylsulfonamido)-4-methoxybenzene] as the compound, how does the melting point read?
Answer: 64 to 66 °C

Question: For COc1ccc(NS(=O)(=O)c2c(F)c(F)c(F)c(F)c2F)cc1C(F)(F)F [Example 49, 4-Methoxy-1-pentafluorophenylsulfonamido-3-trifluoromethylbenzene], which melting point is on record?
Answer: 121 to 123 °C

Question: For O=S(=O)(Nc1ccc(N2CCOCC2)cc1)c1c(F)c(F)c(F)c(F)c1F [Example 25, 4-(1-Morpholino)-1-pentafluorophenylsulfonamidobenzene], which EC (max) [1] is on record?
Answer: 15 µM

Question: Which melting point does the source give for COc1ccc(N(CCC(O)CO)S(=O)(=O)c2c(F)c(F)c(F)c(F)c2F)cc1 (centres unmarked) [Example 54, 1-(N-(3,4-Dihydroxybutyl)pentafluorophenylsulfonamido)-4-methoxybenzene] here?
Answer: 126 to 128 °C

Question: Which EC (max) [1] does the source give for COc1ccc(N(C)S(=O)(=O)c2c(F)c(F)c(F)c(F)c2F)cc1F [Example 30, 2-Fluoro-1-methoxy-4-(N-methylpentafluorophenylsulfonamido)benzene] here?
Answer: 15 µM

Question: Which EC (max) [1] does the source give for O=S(=O)(Nc1cccc(O)c1)c1c(F)c(F)c(F)c(F)c1F [Example 9, 3-Hydroxy-1-pentafluorophenylsulfonamidobenzene] here?
Answer: 5 µM

Question: For COc1ccc(NS(=O)(=O)c2c(F)c(F)c(F)c(F)c2F)cc1N [Example 59, 3-Amino-4-methoxy-1-pentafluorophenylsulfonamidobenzene], which melting point is on record?
Answer: 142 to 143 °C

Question: For COc1ccc(NS(=O)(=O)c2c(F)c(F)c(F)c(F)c2F)cc1O [Example 6, 2-Hydroxy-1-methoxy-4-pentafluorophenylsulfonamidobenzene], which EC (max) [1] is on record?
Answer: 0.15 µM

Question: For COc1ccc(N(CCCCO)S(=O)(=O)c2c(F)c(F)c(F)c(F)c2F)cc1 [Example 56, 1-(N-(4-hydroxybutyl)pentafluorophenylsulfonamido)-4-methoxybenzene], which melting point is on record?
Answer: 88 to 90 °C

Question: For COc1ccc(N(CCCC(O)CO)S(=O)(=O)c2c(F)c(F)c(F)c(F)c2F)cc1 (centres unmarked) [Example 55, 1-(N-(4,5-Dihydroxypentyl)pentafluorophenylsulfonamido)-4-methoxybenzene], which melting point is on record?
Answer: 116 to 118 °C

Question: With COc1cc(Br)c(NS(=O)(=O)c2c(F)c(F)c(F)c(F)c2F)cc1F [Example 41, 1-Bromo-4-fluoro-5-methoxy-2-pentafluorophenylsulfonamidobenzene] as the compound, how does the melting point read?
Answer: 109 °C

Question: Which melting point does the source give for C=CCN(c1ccc(OC)cc1)S(=O)(=O)c1c(F)c(F)c(F)c(F)c1F [Example 50, 4-Methoxy-1-(N-(2-propenyl)pentafluorophenylsulfonamido)benzene] here?
Answer: 59 to 60 °C

Question: With COc1ccc(NS(=O)(=O)c2c(F)c(F)c(F)c(F)c2F)cc1Br [Example 31, 2-Bromo-1-methoxy-4-pentafluorophenylsulfonamidobenzene] as the compound, how does the EC (max) [1] read?
Answer: ≤ 5 µM
